Data on four compounds can be found in patent US20030224978A1, “Compounds and methods for modulating apoptosis” (McGill University, priority 1996, published 2003).

Broadly, the inhibition is the relative decrease from the control value, in per cent. As usually defined, the EC50 is the midpoint of the concentration-response curve. One may read the IC50 as the concentration that gives 50% inhibition.

In one data set the target is T1, chick N-cadherin (Gallus gallus, UniProt P10288).
T1 construct: expressed in transfected cells; host or cells: 3T3 fibroblasts
T1 sequence (P10288 165-912): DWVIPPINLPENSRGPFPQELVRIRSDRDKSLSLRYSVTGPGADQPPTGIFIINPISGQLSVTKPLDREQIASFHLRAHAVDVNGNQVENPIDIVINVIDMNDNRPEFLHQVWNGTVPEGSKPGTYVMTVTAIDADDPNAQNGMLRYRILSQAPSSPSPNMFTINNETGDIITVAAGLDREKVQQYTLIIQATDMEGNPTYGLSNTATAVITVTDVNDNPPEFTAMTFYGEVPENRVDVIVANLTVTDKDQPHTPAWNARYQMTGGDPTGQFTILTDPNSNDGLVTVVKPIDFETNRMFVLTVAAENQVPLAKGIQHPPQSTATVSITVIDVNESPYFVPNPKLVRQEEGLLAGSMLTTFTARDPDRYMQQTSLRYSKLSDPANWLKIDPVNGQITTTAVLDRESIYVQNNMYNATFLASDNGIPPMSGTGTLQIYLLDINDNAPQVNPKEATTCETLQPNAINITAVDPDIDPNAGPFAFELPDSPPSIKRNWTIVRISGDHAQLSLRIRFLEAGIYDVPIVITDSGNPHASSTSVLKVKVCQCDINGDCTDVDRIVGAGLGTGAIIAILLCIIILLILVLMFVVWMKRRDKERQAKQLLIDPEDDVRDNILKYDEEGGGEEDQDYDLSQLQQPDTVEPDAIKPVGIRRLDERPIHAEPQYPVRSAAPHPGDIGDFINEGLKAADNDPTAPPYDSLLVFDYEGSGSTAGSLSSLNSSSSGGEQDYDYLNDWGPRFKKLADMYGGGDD
Kind of data set: N-cadherin dependent neurite outgrowth of rat cerebellar neurons on N-cadherin expressing 3T3 cells (Example 14). Particulars: for inhibition at 250 µg/mL: 250 μg/mL. The data set is classed as cell-based. Here is the method: (§1) Cell culture and neurite outgrowth assays. Co-cultures of cerebellar neurons on monolayers of control 3T3 cells and monolayers of transfected 3T3 cells that express physiological levels of chick N-cadherin or human L1 were established as previously described (Williams et al., Neuron 13:583-594, 1994). In brief, 80,000 3T3 cells (control and transfected) were plated into individual chambers of an eight-chamber tissue culture slide coated with polylysine and fibronectin and cultured in DMEM/10% FCS. After 24 hours, when confluent monolayers had formed, the medium was removed and 3000 cerebellar neurons isolated from post-natal day 2-3 rats were plated into each well in SATO media (Doherty et al., Nature 343:464-466, 1990) supplemented with 2% FCS. All of the test peptides were added immediately before the neurons as a 2×stock prepared in SATO/2% FCS. The co-cultures were maintained for 16-18 hours, at which time they were fixed and immunostained for GAP-43 which is present only in the neurons and delineates the neuritic processes. The mean length of the longest neurite per cell was measured for 150-200 neurons sampled in replicate cultures as previously described (Williams et al., Neuron 13:583-594, 1994). […] Dose-response curves were evaluated and the EC50 values determined.
Effects of cyclic HAV peptides on N-cadherin function. The ability of N-Ac-CHAVC-NH2 (SEQ ID NO:10; compound 1) to inhibit neurite outgrowth was initially tested. This cyclic peptide has the cadherin CAR sequence (HAV) and no flanking amino acid residues. Neurons were cultured on confluent monolayers of control (untransfected) and N-cadherin expressing 3T3 cells for 16-18 hours. The cells were then fixed and the length of the longest neurite on 150-200 neurons was determined by standard assay, as described above. FIG. 24 gives the mean neurite length in a representative experiment where cerebellar neurons have been cultured over control and N-cadherin expressing cells. In the absence of peptide, the mean length of the longest neurite per cell was approximately double on the N-cadherin expressing cells, as compared to 3T3 cells. This response requires N-cadherin function in both the neuron and transfected fibroblast.

For a further data set, the target named is L1 (Homo sapiens, UniProt P32004). Kind of data set: L1 response: neurite outgrowth of rat cerebellar neurons on L1 expressing 3T3 cells (Example 14). The data set is classed as cell-based. Also on record: expressed in transfected cells; host or cells: 3T3 cells (stably transfected). Particulars: 100 μg/mL, concentrations that substantially inhibited the N-cadherin response. Here is the method: FIG. 26 is a bar graph illustrating the effects of the cyclic peptides N-Ac-CHAVDC-NH2 (SEQ ID NO:11), N-Ac-CHAVDIC-NH2 (SEQ ID NO:62) and N-Ac-[…]-NH2 (SEQ ID NO:63) on L1 function. Cerebellar neurons were cultured on monolayers of control 3T3 cells and L1 expressing 3T3 cells for 16-18 hours in control media (unshaded) or control media supplemented with peptides N-Ac-CHAVDC-NH2 (SEQ ID NO:11; diagonal rising right), N-Ac-CHAVDIC-NH2 (SEQ ID NO:62); diagonal cross hatch) or N-Ac-[…]-NH2 (SEQ ID NO:63; diagonal rising left) at a concentration of 100 μg/mL. The cultures were then fixed and neurite outgrowth determined by measuring the length of the longest neurite from a total of 150-200 neurons sampled in replicate cultures for each experimental condition. […] The results are pooled from three independent experiments, and the bars show the s.e.m.
as §1, with “The co-cultures were maintained for 16-18 hours, at which time they were fixed and immunostained for GAP-43 which is present only in the neurons and delineates the neuritic processes.” left out, “determined. […]” for “determined.”

In data set [1] the test system is bovine pulmonary artery endothelial cells. Kind of data set: Disruption of bovine endothelial cell adhesion. The format is cell-based. As to conditions: 500 μg/ml, 30 minutes. As to the method: For use within one such assay, bovine pulmonary artery endothelial cells may be harvested by sterile ablation and digestion in 0.1% collagenase (type II; Worthington Enzymes, Freehold, N.J.). Cells may be maintained in Dulbecco's minimum essential medium supplemented with 10% fetal calf serum and 1% antibiotic-antimycotic at 37° C. in 7% CO2 in air. Cultures may be passaged weekly in trypsin-EDTA and seeded onto tissue culture plastic at 20,000 cells/cm^2. Endothelial cultures may be used at 1 week in culture, which is approximately 3 days after culture confluency is established. The cells may be seeded onto coverslips and treated (e.g., for 30 minutes) with modulating agent or a control compound at, for example, 500 μg/ml and then fixed with 1% paraformaldehyde. As noted above, disruption of cell adhesion may be determined visually within 24 hours, by observing retraction of the cells from one another. This assay evaluates the effect of a modulating agent on N-cadherin mediated cell adhesion.
Bovine pulmonary artery endothelial cells were harvested by sterile ablation and digestion in 0.1% collagenase (type II; Worthington Enzymes, Freehold, N.J.). Cells were maintained in Dulbecco's […] essential medium (Clonetics, San Diego, Calif.) supplemented with 10% fetal calf serum (Atlantic Biologicals, Nor cross, Ga.) and 1% antibiotic-antimycotic at 37° C. in 7% CO2 in air. Cultures were passaged weekly in trypsin-EDTA (Gibco, Grand Island, N.Y.) and seeded onto tissue culture plastic at 20,000 cells/cm^2 for all experiments. Endothelial cultures were used at 1 week in culture, which is approximately 3 days after culture confluency was established. The cells used in all protocols were between 4th passage and 10th passage. The cells were seeded onto coverslips and treated 30 minutes with N-Ac-CHAVC-NH2 (SEQ ID NO:10) or N-Ac-CHGVC-NH2 (SEQ ID NO:20) at 500 μg/ml and then fixed with 1% paraformaldehyde.

Data set [2] in a line: in vitro. Particulars: human. The format is cell-based. Here is the method: (§2) N-Ac-CHAVC-NH2 (SEQ ID NO:10) and the control peptide N-Ac-CHGVC-NH2 (SEQ ID NO:20) were evaluated for possible cytotoxic effects on human microvascular endothelial (HMVEC; Clonetics), human umbilical vein endothelial (HUVEC; ATCC #CRL-1730), IAFp2 (human fibroblast cell line; Institute Armand-Frapier, Montreal, Quebec), WI-38 (human fibroblast cell line; ATCC #CCL-75), MDA-MB231 (human breast cancer cell line; ATCC #HTB-26), and PC-3 (human prostate cancer cell line; ATCC #CRL-1435) cells utilizing the MTT assay (Plumb et al., Cancer Res. 49:4435-4440, 1989). Neither of the peptides was cytotoxic at concentrations up to and including 100 μM. Similarly, neither of the peptides was capable of inhibiting the proliferation of the above cell lines at concentrations up to 100 μM, as judged by ^3H-thymidine incorporation assays.

A short description of data set [3]: in vitro. The format is cell-based. As to conditions: human. Here is the method: as §2
The source holds these as a separate data set.

The subject of data set [4] is angiogenesis in chick embryonic chorioallantoic membranes. Kind of data set: Chick chorioallantoic membrane angiogenesis assay. The data set is classed as in vivo. As to conditions: for percent inhibition of angiogenesis: 24 hours. Here is the method: The chick chorioallantoic membrane assay was used to assess the effects of cyclic peptides on angiogenesis (Iruela-Arispe et al., Molecular Biology of the Cell 6:327-343, 1995). Cyclic peptides were embedded in a mesh composed of vitrogen at concentrations of 3, 17, and 33 μg/mesh. The meshes were then applied to 12-day-old chick embryonic chorioallantoic membranes. After 24 hours, the effects of the peptides on angiogenesis were assessed by computer assisted morphometric analysis.
For each concentration of cyclic peptide, the percent inhibition of angiogenesis (relative to the level of angiogenesis in the absence of cyclic peptide) is provided. Assays were performed in the presence (+) or absence (−) of […] VEGF. For example, the cyclic peptide N-Ac-CHAVC-NH2 (SEQ ID NO:10) inhibited angiogenesis by 46%, 51%, and 51% at concentrations of 3, 17, and 33 μg/mesh, respectively.

Data set [5] can be described thus: in vitro. The format is cell-based. As to conditions: human. Here is the method:
as §2
The source holds these as a separate data set.

Data set [6] in a line: in vitro. The data set is classed as cell-based. As to conditions: human. Here is the method:
as §2
This is another data set of the same source.

“Also recorded” adds a separate entry of the source. Positions of bridges follow the written chain, without caps; N, C: chain ends. Residues, ends and D or L forms follow the SMILES beside them. Where only a bound is given, the exact number is not on record here.

Chain of L1 (P32004 20-1257): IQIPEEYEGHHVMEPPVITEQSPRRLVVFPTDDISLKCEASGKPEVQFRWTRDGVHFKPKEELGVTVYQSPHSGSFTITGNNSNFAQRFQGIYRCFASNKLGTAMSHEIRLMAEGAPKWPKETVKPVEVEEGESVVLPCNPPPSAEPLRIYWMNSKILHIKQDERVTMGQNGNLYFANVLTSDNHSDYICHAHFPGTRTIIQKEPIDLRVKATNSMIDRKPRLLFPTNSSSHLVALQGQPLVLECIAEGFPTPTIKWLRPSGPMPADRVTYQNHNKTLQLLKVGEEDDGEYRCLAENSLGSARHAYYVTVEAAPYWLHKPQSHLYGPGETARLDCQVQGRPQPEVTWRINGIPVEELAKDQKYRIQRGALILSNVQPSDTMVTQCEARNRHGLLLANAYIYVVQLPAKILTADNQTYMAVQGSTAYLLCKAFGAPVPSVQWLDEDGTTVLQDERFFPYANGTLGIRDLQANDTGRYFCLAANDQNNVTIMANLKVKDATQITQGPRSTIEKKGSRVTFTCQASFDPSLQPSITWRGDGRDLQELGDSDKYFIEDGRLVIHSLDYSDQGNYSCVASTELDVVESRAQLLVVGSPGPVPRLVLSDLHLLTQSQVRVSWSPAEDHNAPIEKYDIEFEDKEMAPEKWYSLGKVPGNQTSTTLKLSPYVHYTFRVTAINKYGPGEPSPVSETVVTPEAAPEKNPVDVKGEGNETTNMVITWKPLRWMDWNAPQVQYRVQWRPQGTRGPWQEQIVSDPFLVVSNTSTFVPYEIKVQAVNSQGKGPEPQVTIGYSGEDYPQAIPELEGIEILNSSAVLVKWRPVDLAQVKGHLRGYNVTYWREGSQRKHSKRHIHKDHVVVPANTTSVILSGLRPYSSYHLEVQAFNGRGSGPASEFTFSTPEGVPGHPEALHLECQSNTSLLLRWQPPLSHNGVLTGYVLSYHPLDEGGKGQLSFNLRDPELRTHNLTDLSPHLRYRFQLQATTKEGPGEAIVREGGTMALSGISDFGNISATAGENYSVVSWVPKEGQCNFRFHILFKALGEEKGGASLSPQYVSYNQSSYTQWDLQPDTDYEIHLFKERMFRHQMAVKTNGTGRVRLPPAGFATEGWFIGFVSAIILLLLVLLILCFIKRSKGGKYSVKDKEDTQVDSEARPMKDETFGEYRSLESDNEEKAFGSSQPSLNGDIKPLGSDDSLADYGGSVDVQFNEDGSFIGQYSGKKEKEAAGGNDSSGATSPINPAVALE

Regarding `CC[C@H](C)[C@@H]1NC(=O)[C@H](CC(=O)O)NC(=O)[C@H](C(C)C)NC(=O)[C@H](C)NC(=O)[C@H](Cc2c[nH]cn2)NC(=O)[C@@H](NC(C)=O)CSSC[C@@H](C(N)=O)NC(=O)[C@H](CC(N)=O)NC1=O` (Ac-CHAVDINC-NH2; disulfide 1-8), the inhibition at 125 µg/mL on chick N-cadherin (NIH3T3, 125 μg/mL, 16-18 hours) came out at 62 ± 3.4%. Also, the “inhibitory activity on N-cadherin dependent neurite outgrowth, in words” value against chick N-cadherin (Tables 8 and 9, 250 or 125 μg/mL) was “only a slight loss in activity; also recorded: potent inhibitors”. At chick N-cadherin (from dose-response curve), the EC50 came out at 70 µM. The “effect on L1 response (neurite outgrowth over L1 expressing 3T3 cells)” value on L1 is reported as “did not interfere with the ability of neurons to extend neurites over 3T3 cells expressing L1; also recorded: not inhibited”.
Turning to `CC(=O)N[C@H]1CSSC[C@@H](C(N)=O)NC(=O)[C@H](CO)NC(=O)[C@H](CO)NC(=O)[C@H](C(C)C)NC(=O)[C@H](C)NC(=O)[C@H](Cc2c[nH]cn2)NC(=O)[C@H](CO)NC1=O` (Ac-CSHAVSSC-NH2; disulfide 1-8), in data set [1], the “effect on endothelial cell monolayer / morphology” value is “disrupted the endothelial cell monolayer; also recorded: retracted from one another and round up”. At chick N-cadherin (NIH3T3, 16-18 hours), the inhibition at 250 µg/mL is -12.6 ± 6.4%. Also, at chick N-cadherin (Table 8, 250 μg/mL), the “reduction in inhibitory activity on flanking HAV with E-cadherin amino acids” value is “complete”. For the same compound, the IC50 in “in vitro [2]”, in “in vitro [3]”, in the data set “in vitro [5]” and in the data set “in vitro [6]” was greater than 100 µM each time. Besides, the “percent inhibition of angiogenesis” value in data set [4] (3 μg/mesh, absence (−) of 0.01 mM VEGF) was 1%; in data set [4] (3 μg/mesh, presence (+) of 0.01 mM VEGF), −3%; in data set [4] (17 μg/mesh, absence (−) of 0.01 mM VEGF) it was −3%; in data set [4] (17 μg/mesh, presence (+) of 0.01 mM VEGF), 12%; in data set [4] (33 μg/mesh, absence (−) of 0.01 mM VEGF) it was 17%; in data set [4] (33 μg/mesh, presence (+) of 0.01 mM VEGF), 7%. For the same compound, in data set [4] (3, 17, and 33 μg/mesh), the “inhibition of angiogenesis, in words” value was “relatively inactive”.
On to `CC(=O)N[C@H]1CSSC[C@@H](C(N)=O)NC(=O)[C@H](CC(=O)O)NC(=O)[C@H](C(C)C)NC(=O)CNC(=O)[C@H](Cc2c[nH]cn2)NC(=O)[C@H](C)NC1=O` [N-Ac-CAHGVDC-NH2, reference compound] (Ac-CAHGVDC-NH2; disulfide 1-7), for which the “effect on endothelial cell monolayer / morphology” value in data set [1] is “inactive”. In addition, at chick N-cadherin (NIH3T3, 16-18 hours), the inhibition at 250 µg/mL was 4 ± 6.9%. Besides, the IC50 in the data set “in vitro [2]”, in “in vitro [3]”, in the data set “in vitro [5]” and in “in vitro [6]” was greater than 100 µM throughout.
On to `CC(=O)N[C@H]1CSSC[C@@H](C(N)=O)NC(=O)[C@H](CO)NC(=O)[C@H](CO)NC(=O)[C@H](C(C)C)NC(=O)CNC(=O)[C@H](Cc2c[nH]cn2)NC(=O)[C@H](CO)NC1=O` [reference compound] (Ac-CSHGVSSC-NH2; disulfide 1-8), for which the “effect on endothelial cell monolayer / morphology” value in data set [1] is “inactive”. In addition, the inhibition at 250 µg/mL against chick N-cadherin (NIH3T3, 16-18 hours) is -5.6 ± 5.9%. Moreover, the IC50 in the data set “in vitro [2]”, in the data set “in vitro [3]”, in “in vitro [5]” and in “in vitro [6]” was greater than 100 µM throughout.
